Assay results reported in ChEMBL document CHEMBL5465560, “Selectivity Literature for EUbOPEN Chemogenomic Library” (2024).
Blank lines part the entries; values can stand above or below the compound they belong to.

Assays:
[1] = target: Bromodomain testis-specific protein (Homo sapiens) (UniProt Q58F21); experiment: Selectivity interaction (Human bromodomain panel (DSF assay)) EUB0000233b BRDT
[2] = target: T1, Serine/threonine-protein kinase D1 (Homo sapiens) (UniProt Q15139); experiment: Selectivity interaction (ProQinase) EUB0000171b PRKD1
T1 sequence (whole entry): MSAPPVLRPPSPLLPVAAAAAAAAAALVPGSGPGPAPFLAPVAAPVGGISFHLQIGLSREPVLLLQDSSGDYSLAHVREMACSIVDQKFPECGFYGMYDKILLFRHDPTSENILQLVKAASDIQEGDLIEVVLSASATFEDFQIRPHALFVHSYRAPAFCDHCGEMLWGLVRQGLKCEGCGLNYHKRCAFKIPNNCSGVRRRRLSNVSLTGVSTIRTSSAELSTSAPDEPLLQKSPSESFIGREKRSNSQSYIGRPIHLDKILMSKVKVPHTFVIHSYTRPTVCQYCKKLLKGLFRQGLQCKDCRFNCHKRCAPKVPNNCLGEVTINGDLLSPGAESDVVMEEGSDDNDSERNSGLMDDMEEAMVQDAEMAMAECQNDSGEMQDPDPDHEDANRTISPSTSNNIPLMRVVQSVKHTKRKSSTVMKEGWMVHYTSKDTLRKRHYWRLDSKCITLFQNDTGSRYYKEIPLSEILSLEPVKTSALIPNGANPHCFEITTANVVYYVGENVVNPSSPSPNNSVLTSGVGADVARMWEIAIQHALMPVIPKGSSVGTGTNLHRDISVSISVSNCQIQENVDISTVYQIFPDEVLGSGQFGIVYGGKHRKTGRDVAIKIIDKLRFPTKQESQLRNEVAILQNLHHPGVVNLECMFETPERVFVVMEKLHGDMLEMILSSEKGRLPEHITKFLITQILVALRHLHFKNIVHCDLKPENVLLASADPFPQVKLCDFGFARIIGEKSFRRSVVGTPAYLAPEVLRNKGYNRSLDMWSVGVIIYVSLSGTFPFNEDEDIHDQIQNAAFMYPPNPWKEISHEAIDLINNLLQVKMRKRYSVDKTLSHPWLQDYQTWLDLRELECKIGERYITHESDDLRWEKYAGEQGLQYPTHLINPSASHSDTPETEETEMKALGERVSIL

[3] = target: T2, Mitogen-activated protein kinase kinase kinase 19 (Homo sapiens) (UniProt Q56UN5); experiment: Selectivity interaction (KinomeScan (DiscoverX)) EUB0000092b MAP3K19; conditions: at 10 µM
T2 sequence (whole entry): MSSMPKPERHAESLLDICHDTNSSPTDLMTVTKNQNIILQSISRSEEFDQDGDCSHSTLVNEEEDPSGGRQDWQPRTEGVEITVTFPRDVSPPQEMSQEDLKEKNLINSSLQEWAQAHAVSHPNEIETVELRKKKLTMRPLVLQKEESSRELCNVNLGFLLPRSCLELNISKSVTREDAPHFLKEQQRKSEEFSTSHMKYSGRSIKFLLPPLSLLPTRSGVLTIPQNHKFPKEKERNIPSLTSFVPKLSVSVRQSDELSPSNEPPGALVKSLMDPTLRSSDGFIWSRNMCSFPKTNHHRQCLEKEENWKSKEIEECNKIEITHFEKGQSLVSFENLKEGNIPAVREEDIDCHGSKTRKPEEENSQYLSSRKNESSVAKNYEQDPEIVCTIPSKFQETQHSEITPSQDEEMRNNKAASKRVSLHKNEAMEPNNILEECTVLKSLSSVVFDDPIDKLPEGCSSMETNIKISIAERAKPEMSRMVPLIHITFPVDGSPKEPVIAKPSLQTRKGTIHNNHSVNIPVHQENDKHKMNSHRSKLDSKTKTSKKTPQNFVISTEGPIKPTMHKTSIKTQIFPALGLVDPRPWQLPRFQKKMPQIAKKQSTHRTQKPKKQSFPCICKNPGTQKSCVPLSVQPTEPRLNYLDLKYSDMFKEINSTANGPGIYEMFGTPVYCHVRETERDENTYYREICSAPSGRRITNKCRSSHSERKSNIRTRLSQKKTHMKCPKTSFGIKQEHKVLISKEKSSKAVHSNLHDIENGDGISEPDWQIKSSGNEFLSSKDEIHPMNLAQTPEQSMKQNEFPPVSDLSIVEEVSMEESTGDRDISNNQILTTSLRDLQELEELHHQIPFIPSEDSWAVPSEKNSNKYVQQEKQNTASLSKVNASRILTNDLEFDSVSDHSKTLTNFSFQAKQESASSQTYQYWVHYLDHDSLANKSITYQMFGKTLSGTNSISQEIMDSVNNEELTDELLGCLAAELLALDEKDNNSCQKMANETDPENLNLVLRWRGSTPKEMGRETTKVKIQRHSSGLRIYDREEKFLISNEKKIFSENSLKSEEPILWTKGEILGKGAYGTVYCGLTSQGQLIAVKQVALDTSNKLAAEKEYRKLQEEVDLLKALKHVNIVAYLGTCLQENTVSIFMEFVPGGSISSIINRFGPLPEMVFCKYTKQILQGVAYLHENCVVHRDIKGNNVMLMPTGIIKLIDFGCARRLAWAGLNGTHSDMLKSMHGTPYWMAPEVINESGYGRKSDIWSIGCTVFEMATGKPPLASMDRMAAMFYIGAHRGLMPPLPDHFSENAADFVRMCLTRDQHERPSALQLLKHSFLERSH

[4] = target: T3, Receptor-interacting serine/threonine-protein kinase 1 (Homo sapiens) (UniProt Q13546); experiment: Selectivity interaction (KinomeScan (DiscoverX)) EUB0000618a RIPK1; conditions: at 10 µM
T3 sequence (whole entry): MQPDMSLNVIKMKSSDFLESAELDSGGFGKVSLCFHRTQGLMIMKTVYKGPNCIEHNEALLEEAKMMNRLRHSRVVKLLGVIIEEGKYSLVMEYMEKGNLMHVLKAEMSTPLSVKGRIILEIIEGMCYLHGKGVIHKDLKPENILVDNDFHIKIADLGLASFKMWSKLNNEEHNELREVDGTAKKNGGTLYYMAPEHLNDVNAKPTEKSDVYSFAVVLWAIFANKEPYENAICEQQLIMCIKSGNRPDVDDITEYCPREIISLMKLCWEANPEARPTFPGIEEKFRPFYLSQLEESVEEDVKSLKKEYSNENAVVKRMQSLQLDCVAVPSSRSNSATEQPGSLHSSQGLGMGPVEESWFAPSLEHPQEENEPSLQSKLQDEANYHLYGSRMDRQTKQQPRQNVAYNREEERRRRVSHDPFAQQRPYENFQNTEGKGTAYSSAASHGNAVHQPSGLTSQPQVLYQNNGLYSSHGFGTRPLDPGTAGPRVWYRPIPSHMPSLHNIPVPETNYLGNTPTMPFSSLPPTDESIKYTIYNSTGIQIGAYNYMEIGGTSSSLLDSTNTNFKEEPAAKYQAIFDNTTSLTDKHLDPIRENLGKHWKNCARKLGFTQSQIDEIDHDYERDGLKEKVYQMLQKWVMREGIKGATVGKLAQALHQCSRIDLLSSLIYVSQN

dTM [1]: < 2 K
Structure (SMILES): CN(C)CCCOc1ccc(-c2cc(NCCCn3cccn3)nc(S(C)(=O)=O)n2)cc1

% of control ([2]; at 1 µM): 68%
% of control ([2]; at 5 µM): 31%
Structure (SMILES): C=CC(=O)Nc1cccc(C(=O)Nc2ccc(Nc3cc(-c4[nH]c(SC)nc4C)ccn3)cc2)c1

Structure (SMILES): CCC(=O)N1CCN(c2ccc(-n3c(=O)ccc4cnc5ccc(-c6cnc7ccccc7c6)cc5c43)cc2C(F)(F)F)CC1
% of control [3]: 38%

Structure (SMILES): O[C@H]1CC[C@H](Nc2ncc3nc(Nc4c(F)cc(F)cc4F)n([C@H]4CCOC4)c3n2)CC1
% of control [4]: 100%
